Eight compounds from ChEMBL document CHEMBL3045939, “Synthesis and evaluation of fused pyrimidine derivatives as anti-inflammatory, antiproliferative and antimicrobial agents” (Med Chem Res, 2012) can be followed below.

The test system of experiment [1] is Rattus norvegicus. The experiment is described as follows: Anti-inflammatory activity in Rattus norvegicus Wistar albino (rat) assessed as carrageenan-induced paw volume at 100 mg/kg, po administered 1 hr prior to carrageenan-challenge measured at 4 hr (reference value: 1.2825 +/- 0.0862 mm3). The class given is functional.
Experiment [2] can be described thus: Cytotoxicity against Homo sapiens (human) Chang cells after 24 hr by MTT assay. The class given is functional, cell-based. (Formazan colour is commonly taken as a measure of viable cells.)
The next experiment relates to Pseudomonas aeruginosa. The experiment is described as follows: Antimicrobial activity against Pseudomonas aeruginosa ATCC 27853 after 24 hr by broth micro dilution assay. The class given is functional. As to conditions: ATCC 27853, 24 h.
For experiment [3], the system named is Rattus norvegicus. The experiment is described as follows: Anti-inflammatory activity in Rattus norvegicus Wistar albino (rat) assessed as carrageenan-induced paw volume at 100 mg/kg, po administered 1 hr prior to carrageenan-challenge measured at 5 hr (reference value: 1.24 +/- 0.0754 mm3). The class given is functional. (Carrageenan injected into the paw causes an acute inflammation.)

The next experiment concerns HEp-2. Briefly: Cytotoxicity against Homo sapiens (human) Hep2 cells after 24 hr by MTT assay. The class given is functional, cell-based. As to conditions: HEp-2, 24 h.
The test system of experiment [4] is Rattus norvegicus. The experiment is described as follows: Anti-inflammatory activity in Rattus norvegicus Wistar albino (rat) assessed as carrageenan-induced paw volume at 100 mg/kg, po administered 1 hr prior to carrageenan-challenge measured at 1 hr (reference value: 1.2075 +/- 0.0405 mm3). The class given is functional.
The subject of another experiment is Aspergillus flavus. Briefly: Antimicrobial activity against Aspergillus flavus ATCC 15517 after 48 hr by broth micro dilution assay. The class given is functional. As to conditions: ATCC 15517, 48 h.
Another experiment concerns Staphylococcus aureus. Briefly: Antimicrobial activity against Staphylococcus aureus ATCC 25923 after 24 hr by broth micro dilution assay. The class given is functional. As to conditions: ATCC 25923, 24 h.
A further experiment deals with Candida albicans. The experiment is described as follows: Antimicrobial activity against Candida albicans ATCC 24433 after 48 hr by broth micro dilution assay. The class given is functional. As to conditions: ATCC 24433, 48 h.
In experiment [5] the test system is Rattus norvegicus. Briefly: Anti-inflammatory activity in Rattus norvegicus Wistar albino (rat) assessed as carrageenan-induced paw volume at 100 mg/kg, po administered 1 hr prior to carrageenan-challenge measured at 3 hr (reference value: 1.225 +/- 0.0484 mm3). The class given is functional.
Another experiment deals with HeLa. Briefly: Cytotoxicity against Homo sapiens (human) HeLa cells after 24 hr by MTT assay. The class given is functional, cell-based.
The subject of experiment [6] is Rattus norvegicus. Briefly: Anti-inflammatory activity in Rattus norvegicus Wistar albino (rat) assessed as carrageenan-induced paw volume at 100 mg/kg, po administered 1 hr prior to carrageenan-challenge measured at 2 hr (reference value: 1.4175 +/- 0.1931 mm3). The class given is functional.
The next experiment concerns Escherichia coli. Briefly: Antimicrobial activity against Escherichia coli ATCC 25922 after 24 hr by broth micro dilution assay. The class given is functional. The following applies: ATCC 25922, 24 h.
Experiment [7] has as its system Rattus norvegicus. The experiment is described as follows: Anti-inflammatory activity in Rattus norvegicus Wistar albino (rat) assessed as inhibition of carrageenan-induced paw edema at 100 mg/kg, po administered 1 hr prior to carrageenan-challenge measured at 2 hr relative to control. The class given is functional.
The test system of experiment [8] is Rattus norvegicus. Briefly: Anti-inflammatory activity in Rattus norvegicus Wistar albino (rat) assessed as inhibition of carrageenan-induced paw edema at 100 mg/kg, po administered 1 hr prior to carrageenan-challenge measured at 1 hr relative to control. The class given is functional.

By IC50 is commonly meant the concentration needed to halve the response being measured. Higher therefore signals weaker potency in that assay. As usually defined, the MIC is the lowest concentration that inhibits growth of the organism. Read a high MIC as a need for much substance. One may read the inhibition in vivo as how much of the control response was suppressed.

≈ marks a conversion by molar mass, not a printed value. A value given as a limit tells only on which side of the number the result lay.

For the compound `O=c1c2cc(Cl)ccc2nc(-c2ccccc2)n1-c1ccc(Cl)cc1`, the Activity in the experiment on Rattus norvegicus [1] was determined as 1.1425 mm3; in the experiment with Rattus norvegicus [3], 1.1825 mm3; with Rattus norvegicus [4], 1.135 mm3; in the experiment on Rattus norvegicus [5], 1.23 mm3; in the experiment with Rattus norvegicus [6], 1.11 mm3. For the same compound, the IC50 was 6.25 µg/mL (≈ 17 µM) in [2], less than 25 µg/mL in the experiment on HEp-2 and less than 25 µg/mL in the experiment on HeLa. Also, the MIC against Pseudomonas aeruginosa was 12.5 µg/mL (≈ 34 µM); with Aspergillus flavus, greater than 100 µg/mL; against Staphylococcus aureus, 3.12 µg/mL (≈ 8.5 µM); against Candida albicans, greater than 100 µg/mL; in the experiment on Escherichia coli, 12.5 µg/mL (≈ 34 µM).

For `O=c1c2cc(Cl)ccc2nc(-c2ccccc2)n1-c1cccc(Cl)c1`, the Activity was determined as 1.0575 mm3 in the experiment with Rattus norvegicus [1]; 1.125 mm3 in the experiment with Rattus norvegicus [3]; 1.1325 mm3 with Rattus norvegicus [4]; 1.06 mm3 in the experiment with Rattus norvegicus [5]; 1.0625 mm3 in the experiment on Rattus norvegicus [6]. In addition, the figures for the 50% inhibitory concentration (IC50) (in [2]; in the experiment on HEp-2; in the experiment on HeLa) were less than 6.25 µg/mL, less than 6.25 µg/mL and less than 25 µg/mL, respectively. In addition, the MIC against Pseudomonas aeruginosa was 25 µg/mL (≈ 68.1 µM); against Aspergillus flavus, greater than 100 µg/mL; against Staphylococcus aureus it was 3.12 µg/mL (≈ 8.5 µM); in the experiment with Candida albicans, greater than 100 µg/mL; in the experiment with Escherichia coli, 6.25 µg/mL (≈ 17 µM). In addition, the inhibition in vivo at 100 mg/kg in the experiment on Rattus norvegicus [7] amounted to 86.8%.

Turning to `O=c1c2cc(Cl)ccc2nc(-c2ccccc2)n1Cc1ccc(F)cc1`, the Activity in the experiment on Rattus norvegicus [1] was found to be 1.24 mm3; with Rattus norvegicus [3], 1.2875 mm3; in the experiment with Rattus norvegicus [4] it was 1.1525 mm3; with Rattus norvegicus [5], 1.135 mm3; with Rattus norvegicus [6], 1.285 mm3. Besides, the concentration for half-maximal inhibition (IC50) turned out to be 17.9 µg/mL (≈ 49.2 µM) in [2], 10.9 µg/mL (≈ 29.8 µM) with HEp-2 and 41.5 µg/mL (≈ 114 µM) in the experiment with HeLa. For the same compound, the MIC with Pseudomonas aeruginosa is 3.12 µg/mL (≈ 8.55 µM); with Aspergillus flavus, 25 µg/mL (≈ 68.5 µM); with Staphylococcus aureus, 0.78 µg/mL (≈ 2.14 µM); in the experiment on Candida albicans, 12.5 µg/mL (≈ 34.3 µM); in the experiment with Escherichia coli, 1.56 µg/mL (≈ 4.28 µM).

For `COc1ccc(-n2c(-c3ccccc3)nc3ccc(Cl)cc3c2=O)cc1`, the Activity is 1.14 mm3 with Rattus norvegicus [1], 1.175 mm3 with Rattus norvegicus [3], 1.12 mm3 with Rattus norvegicus [4] and 1.21 mm3 in the experiment with Rattus norvegicus [5]. In addition, the values for the IC50 (in [2]; in the experiment with HEp-2; in the experiment with HeLa) were greater than 25 µg/mL, 12.5 µg/mL (≈ 34.5 µM) and less than 50 µg/mL, respectively. The MIC against Pseudomonas aeruginosa is 3.12 µg/mL (≈ 8.6 µM); in the experiment on Aspergillus flavus, greater than 100 µg/mL; against Staphylococcus aureus, 3.12 µg/mL (≈ 8.6 µM); with Candida albicans it was 12.5 µg/mL (≈ 34.5 µM); against Escherichia coli, 1.56 µg/mL (≈ 4.3 µM).

As to `O=c1c2cc(Cl)ccc2nc(-c2ccccc2)n1-c1ccc(F)c(Cl)c1`, the Activity in the experiment with Rattus norvegicus [1] was 1.3075 mm3; in the experiment with Rattus norvegicus [3], 1.25 mm3; in the experiment on Rattus norvegicus [4], 1.1875 mm3; in the experiment on Rattus norvegicus [5], 1.17 mm3; in the experiment with Rattus norvegicus [6] it was 1.3525 mm3. Besides, the values for the IC50 (in experiment [2]; in the experiment on HEp-2; with HeLa) were less than 6.25 µg/mL, less than 6.25 µg/mL and less than 25 µg/mL, respectively. Besides, the minimal inhibitory concentration (MIC) against Pseudomonas aeruginosa was 100 µg/mL (≈ 260 µM); in the experiment with Aspergillus flavus it was greater than 100 µg/mL; in the experiment on Staphylococcus aureus, greater than 100 µg/mL; in the experiment on Candida albicans it was greater than 100 µg/mL; against Escherichia coli, greater than 100 µg/mL.

`CN(C)CCn1c(-c2ccccc2)nc2ccc(Cl)cc2c1=O`: the Activity in the experiment on Rattus norvegicus [1] is recorded as 1.165 mm3; in the experiment on Rattus norvegicus [3] it was 1.215 mm3; with Rattus norvegicus [4], 1.1825 mm3; with Rattus norvegicus [5], 1.1875 mm3. For the same compound, the IC50 in experiment [2] is 33.4 µg/mL (≈ 102 µM); in the experiment on HEp-2, 20.5 µg/mL (≈ 62.5 µM); with HeLa it was greater than 200 µg/mL. Moreover, the MIC in the experiment with Pseudomonas aeruginosa came to 6.25 µg/mL (≈ 19.1 µM); in the experiment on Aspergillus flavus it was 100 µg/mL (≈ 305 µM); in the experiment with Staphylococcus aureus it was 1.56 µg/mL (≈ 4.76 µM); with Candida albicans, 50 µg/mL (≈ 153 µM); against Escherichia coli, 3.12 µg/mL (≈ 9.52 µM). The inhibition in vivo at 100 mg/kg with Rattus norvegicus [7] was determined as 88.4%.

As to `O=c1c2cc(Cl)ccc2nc(-c2ccccc2)n1Cc1ccc(Cl)cc1`, the Activity in the experiment on Rattus norvegicus [1] was 1.2325 mm3; in the experiment on Rattus norvegicus [3] it was 1.1825 mm3; in the experiment on Rattus norvegicus [5] it was 1.195 mm3; in the experiment on Rattus norvegicus [6], 1.265 mm3. The figures for the IC50 (in experiment [2]; in the experiment on HEp-2; in the experiment on HeLa) were greater than 50 µg/mL, greater than 50 µg/mL and greater than 200 µg/mL, respectively. The MIC in the experiment on Pseudomonas aeruginosa is 3.12 µg/mL (≈ 8.18 µM); in the experiment with Aspergillus flavus, 25 µg/mL (≈ 65.6 µM); with Staphylococcus aureus it was 0.78 µg/mL (≈ 2.05 µM); in the experiment with Candida albicans, 12.5 µg/mL (≈ 32.8 µM); against Escherichia coli, 1.56 µg/mL (≈ 4.09 µM). In the experiment on Rattus norvegicus [8], the inhibition in vivo at 100 mg/kg turned out to be 72.9%.

For the compound `CC(C)Cc1ccc(C(C)C(=O)O)cc1` (configuration not stated) [IBUPROFEN], in the experiment with Rattus norvegicus [7], the inhibition in vivo at 100 mg/kg worked out at 65.3%.
